Legend:
[1] = test system: carrageenan-induced paw inflammation; experiment: Rat carrageenan-induced paw inflammation (paw edema) assay; assay type: in vivo, Male Sprague Dawley rats; conditions: oral, one hour prior to carrageenan, paw weight difference four hours after carrageenan
Procedure: The in vivo efficacy if NSAID cochleates was tested in a rat carrageenan-induced paw inflammation assay.
Two types of ibuprofen-containing cochleates were prepared, crystal cochleates and geode cochleates. The cochleates were prepared with using soy phosphatidylserine as a negative phospholipid. To prepare the ibuprofen geode cochleate, the soy phosphatidylserine was combined with castor oil and ibuprofen and mixed to form a stable emulsion comprising a mixture of liposomes and lipid monolayers comprising the phosphatidylserine surrounding a hydrophobic domain (castor oil), with the ibuprofen dispersed within the castor oil. […] Crystal and geode cochleates containing 50, 10, 2, 0.4, or 0.1 mg/kg of ibuprofen were prepared. Male Sprague Dawley rats were treated orally (one hour prior to right hind footpad injection of carrageenan) with vehicle, a commercial preparation of ibuprofen or ibuprofen formulated in either crystal or geode cochleates and were evaluated for effects of treatment on inflammatory edema. Animals were sacrificed five hours after dosing with test articles (four hours after carrageenan injection). Efficacy evaluation was based on weight difference due to inflammation-induced swelling in injected (right) vs. uninjected (left) paws. In addition, gastric mucosa were evaluated for differences in incidence and severity of mucosal congestion and erosions.

gastric mucosa = experiment: Evaluation of gastric mucosa for lesions/erosions in rats after oral dosing; assay type: in vivo, Male Sprague Dawley rats
Procedure: Male Sprague Dawley rats were treated orally (one hour prior to right hind footpad injection of carrageenan) with vehicle, a commercial preparation of ibuprofen or ibuprofen formulated in either crystal or geode cochleates and were evaluated for effects of treatment on inflammatory edema. Animals were sacrificed five hours after dosing with test articles (four hours after carrageenan injection). Efficacy evaluation was based on weight difference due to inflammation-induced swelling in injected (right) vs. uninjected (left) paws. In addition, gastric mucosa were evaluated for differences in incidence and severity of mucosal congestion and erosions.

[2] = Solubility of ibuprofen in oils; assay type: physicochemical
[3] = rats, ibuprofen at 50 mg/kg oral

Average Size of Lesion (gastric mucosa; [3]): 7.2 ± 1.9 | Number of Lesions per Animal (gastric mucosa; [3]): 4.1 ± 0.8 | Number of Animals with Lesions (gastric mucosa; rats, ibuprofen at 50 mg/kg oral, five hours after dosing, groups of 10): 9
Compound: CC(C)Cc1ccc(C(C)C(=O)O)cc1 (stereo not drawn) [Commercial ibuprofen, ibuprofen]
ED50 [1]: 30 mg/kg | rats with gastric lesions (incidence) (gastric mucosa; 10 mg/kg, oral): 1 of 10 | rats with gastric lesions (incidence) (gastric mucosa; 10 mg/kg, oral, listed as commercial preparation of ibuprofen): Some rats | number of gastric lesions and total stomach lesion length (in words) (gastric mucosa; 50 mg/kg, oral): significantly increased numbers of gastric lesions and increased total stomach lesion length | rats with gastric lesions (incidence) (gastric mucosa; single-dose 50 mg/kg (highest dose), oral): 9 of 10 | solubility in castor oil compared with other oils [2]: substantially more soluble in castor oil than other oils

Reference: patent US20180185308A1, “COMPOSITIONS AND METHODS FOR TREATING INFLAMMATORY DISEASE OR CONDITIONS” (Matinas BioPharma Nanotechnologies, Inc., priority 2015, published 2018)
